Data taken from patent publication US20040219602A1, “Evaluating effects of exposure conditions on drug samples over time” (Symyx Technologies, Inc., priority 2003, published 2004).

Tests used:
Assay type in all cases: physicochemical
[1] = Fluorescence emission of solid drug samples exposed to 80° C. (thermal stability); details: oven at 80° C., 15 and 41 hours vs unexposed, Renishaw Raman Spectrometer
Procedure: In the following examples, drug candidate stability is evaluated using non-destructive tests to track any change in property over time while exposed to a condition. Fluorescence, Raman, powder X-ray diffraction, near-IR, mid-IR, UV-Vis absorbance, and colorimetry are used. A change in the peak intensity for these tests is measured for the samples before exposure and during exposure.
Two 20 ml vials containing approximately 10 mg each of Amoxicillin, two 20 ml vials containing approximately 10 mg each of Ampicillin trihydrate and two 20 ml vials containing approximately 10 mg each of Caphalexin hydrate were prepared and placed in an oven at 80° C. One vial of each compound was removed from the oven after 15 hours of exposure, and the other vial of each compound was removed from the oven after 41 hours. Approximately 2 mg samples from each of the vials were placed in discreet regions of a Universal ⋄ Substrate™. Approximately 2 mg of unexposed Amoxicillan, Ampicillin trihydrate and Cephalexil hydrate were also placed in discreet regions of the Universal ⋄ Substrate™. The Raman scattering response and the fluorescence emission response of the samples were measured using a Renishaw Raman Spectrometer.

[2] = Powder X-ray diffraction of exposed and unexposed drug sample (thermal stability, crystallinity); details: solid, oven 216 hours at 100 C vs unexposed
Procedure: Approximately 2 mg of Amoxicillin was placed on a Universal ⋄ Substrate™ and exposed in an oven for 216 hours at 100 C. After the sample was removed from the oven, approximately 2 mg of unexposed sample was also on the placed on the Universal ⋄ Substrate™. The X-ray powder diffraction (XRD) patterns for the exposed and unexposed samples were collected on a Bruker D-8 C2 X-ray diffractometer.

[3] = FT-Raman of solid drug samples exposed to 80° C. (thermal stability); details: heated for 216 hours at 80° C. vs unexposed
Text: The change in FT-Raman signal is used to measure the rate of drug decomposition and the chemical stability of the drug candidate.

In the case of `CC1(C)S[C@@H]2[C@H](NC(=O)[C@H](N)c3ccc(O)cc3)C(=O)N2[C@H]1C(=O)O` [Amoxicillin], the “amplitude of the fluorescence emission as a function of heating time” value (from here on “amplitude of the fluorescence emission”) [1] is reported as “increased significantly”, the “crystallinity (powder diffraction intensity) after exposure” value [2] is reported as “almost completely lost” and the “change of FT-Raman spectrum after heating” value [3] is reported as “changes significantly”.
With `CC1(C)S[C@@H]2[C@H](NC(=O)[C@H](N)c3ccccc3)C(=O)N2[C@H]1C(=O)O` [Ampicillin trihydrate] the “amplitude of the fluorescence emission” value [1] was “increased significantly”.
For `CC1=C(C(=O)O)N2C(=O)[C@@H](NC(=O)[C@H](N)c3ccccc3)[C@H]2SC1` [Cephalexin hydrate], the “amplitude of the fluorescence emission” value [1] was “increased significantly”.
